# Measured values reported in patent US20250295795A1, “PEPTIDE” (priority 2021, published 2025).
# Experiments:
# [1] = MTT assay of metabolic activity (cell viability); type: cell-based; details: human, HeLa cells, 1 μM for 60 min
# Experimental: Toxicity is a concern with potent intracellular delivery agents. We used an MTT assay to measure the metabolic activity of Hela cells treated with 1 μM tri-Tat A or tri-cTat B for 60 min (FIG. 4d). […] Tri-Tat A is slightly more toxic, which is consistent with the observation that the trimer forms membrane pores (cells 84.4% viable, 4 h post-treatment; 80.2% viable, 3 days post-treatment). The favourable uptake mechanism and low toxicity of tri-cTat B lead us to investigate this agent for its potential to transport biomacromolecular cargos into cells.
# CHO cells = test: Live cell confocal microscopy: cellular uptake and intracellular distribution of Tat conjugates in CHO cells; type: cell-based, Chinese hamster; details: 1 μM, 60 min, serum-free DMEM, post-wash
# Experimental: The cellular uptake and intracellular distribution of Tat-trimers and monomeric controls was investigated by performing live cell confocal microscopy of HeLa (human, cervical cancer) and CHO (Chinese hamster, epithelial) cells incubated with Tat conjugates (1 μM) in serum-free DMEM (60 min). Following washing, images were acquired using a Zeiss 780 confocal microscope fitted with an incubation chamber (FIG. 2). In accordance with observations that free Tat in the cytosol readily enters the nucleus and strongly binds to nucleoli,^29 homogenous staining of cytoplasm and nucleoli were considered as indicative of cells having accumulated free conjugate, not confined to endosomes, for quantification purposes. […] The uptake and intracellular distribution of tri-Tat A is similar in live Hela and CHO cells (FIG. 2b,d,e).
# (§1) HeLa and CHO cells were cultured in DMEM supplemented with 10% FBS and penicillin/streptomycin. For post-wash experiments, Tat conjugate was added to the cells in serum free medium, cells incubated at 37° C. in an atmosphere of 5% CO2, culture medium removed at the desired time point, cells washed and transferred to the microscope for imaging. For time course or pre-wash experiments, cells were transferred to the microscope (incubation chamber at 37° C., 5% CO2) and Tat conjugate added directly to cell medium and cells imaged at desired time points. Co-delivery experiments were conducted by adding peptide trimer immediately followed by cargo into serum free medium. Samples were visualised using a Zeiss LSM 780 inverted confocal microscope fitted with a XLmultiS1 incubation chamber and Plan-Apochromat 63×/1.40 Oil DIC M27 objective. Images were analysed using ImageJ software. Digital adjustments and image processing are consistent throughout the manuscript, unless otherwise stated in the figure legend. Statistical analysis was carried out using GraphPad Prism 7 software and all data used for statistical analysis consists of measurements from distinct cells. Where applicable a parametric, unpaired, two-tailed t-test was used for statistical testing.
# HeLa cells = test: Co-delivery of antibodies, antibody fragments and RFP into live Hela cells; type: cell-based, human
# Excerpt: Access to the cytosol by mechanisms that are independent of transmembrane pore formation constitutes a preferred method of co-delivery due to reduced toxicity to the cell. […] Successful delivery of Fab is indicated by homogenous distribution of AF647 signal in the cytosol and nucleus and is only observed in cells which have been transduced with tri-cTat B (FIG. 13). Time course of Fab uptake by tri-cTat B (FIG. 5c) follows a similar pattern as tri-cTat B alone (FIG. 3b, d). Tri-cTat B and Fab form large vesicle-like bodies that appear to release their contents into the cytosol of the cell; unambiguous cytosolic staining by Fab is observed from 23 min. Interaction between peptide trimer and biomacromolecule, mediated by charge-charge interactions is essential for the accumulation of both in endosomes and subsequent release and delivery of cargo into cells. Delivery of relatively β-sheet rich, neutrally charged recombinant RFP was unsuccessful (FIG. 16) due to a lack of association between tri-cTat B and cargo (FIG. 17). On the other hand, interaction diminishes the efficacy of the peptide trimer due to charge masking, emphasising the need to maintain an appropriate peptide to cargo ratio for a given macromolecule. Experiments to explore the efficacy of tri-cTat B in the presence of serum supplemented medium underline this principle; while tri-cTat B continues to function in the presence of serum, the number of transduced cells diminishes (42% (serum) vs. 61% (serum free)), but can be restored by increasing tri-cTat B concentration to 2 μM (79% (serum); FIG. 15). […] This is likely due to the larger size of antibodies and also to the observation that antibodies have a greater tendency to aggregate in the presence of tri-cTat B compared to Fab fragments. […] Finally, we investigated whether it is possible to deliver functional antibodies and antibody fragments into the cytosol and nuclei of cells. β-actin was chosen as a proof-of-principle protein because of its abundance in the cell and formation of distinctive subcellular filaments. To clearly identify actin filaments, Hela cells were transfected with red fluorescent protein fused to actin (actin-RFP) before being incubated with β-actin antibody (mouse IgG2b) or β-actin Fab fragment (mouse) conjugated to AF647 plus tri-cTat B for 30 min. After washing, cells were left for 60 min to allow IgG/Fab to bind to actin filaments. […] To enable objective quantification of co-localization between β-actin filaments and IgG/Fab fragment (white arrows), a co-localization threshold algorithm was used in selected regions of interest (ROI). Pearson's and Manders' coefficients were obtained under Costes' automatic threshold^32 and the co-localized pixels are shown as a mask of yellow pixels of constant intensity (co-localization panels). The significance of the co-localization parameters (Pearson's and Manders' coefficients) was evaluated using the confined displacement algorithm (CDA).
# as §1, with “Statistical analysis was carried out using GraphPad Prism 7 software and all data used for statistical analysis consists of measurements from distinct cells. Where applicable a parametric, unpaired, two-tailed t-test was used for statistical testing.” left out
structure (smiles),measurement,setting,value
N=C(N)NCCC[C@@H]1NC(=O)[C@H](CCCNC(=N)N)NC(=O)[C@H](CCCNC(=N)N)NC(=O)[C@H](CCC(N)=O)NC(=O)[C@H](CCCNC(=N)N)NC(=O)[C@H](CCCNC(=N)N)NC(=O)[C@H](CCCCN)NC(=O)[C@H](CCCCN)NC(=O)[C@H](CCCNC(=N)N)NC(=O)[C@H](CCCCn2cc(COCC(COCc3cn(CCCCCCNC(=O)c4ccc5c(c4)C(=O)OC54c5ccc(N)c(S(=O)(=O)O)c5Oc5c4ccc(N)c5S(=O)(=O)O)nn3)(COCc3cn(CCCC[C@@H]4NC(=O)CC[C@@H](C(N)=O)NC(=O)[C@H](CCCNC(=N)N)NC(=O)[C@H](CCCNC(=N)N)NC(=O)[C@H](CCCNC(=N)N)NC(=O)[C@H](CCC(N)=O)NC(=O)[C@H](CCCNC(=N)N)NC(=O)[C@H](CCCNC(=N)N)NC(=O)[C@H](CCCCN)NC(=O)[C@H](CCCCN)NC(=O)[C@H](CCCNC(=N)N)NC4=O)nn3)COCc3cn(CCCC[C@@H]4NC(=O)CC[C@@H](C(N)=O)NC(=O)[C@H](CCCNC(=N)N)NC(=O)[C@H](CCCNC(=N)N)NC(=O)[C@H](CCCNC(=N)N)NC(=O)[C@H](CCC(N)=O)NC(=O)[C@H](CCCNC(=N)N)NC(=O)[C@H](CCCNC(=N)N)NC(=O)[C@H](CCCCN)NC(=O)[C@H](CCCCN)NC(=O)[C@H](CCCNC(=N)N)NC4=O)nn3)nn2)NC(=O)CC[C@@H](C(N)=O)NC1=O (stereo partly shown) [tri-cTat B],"viability at 4 h, 1 µM",[1]; 4 h post-treatment,94.3%
same,"viability at 72 h, 1 µM",[1]; 3 days post-treatment,96.5%
same,cellular uptake and intracellular distribution,CHO cells,taken up into the cytosol and nucleoli
same,cells showing homogenous AF647 staining in cytosol and nucleus (whole IgG co-delivery),"HeLa cells; 166 nM IgG-AF647 + 1 μM trimer, 45 min",approximately 20%
same,cells with Fab delivered into cytosol and nucleus,"HeLa cells; 500 nM AF647-labelled non-specific mouse Fab + 1 μM trimer, 30 min",50%
same,time from which unambiguous cytosolic staining by Fab is observed,HeLa cells; 500 nM Fab-AF647 + 1 μM trimer,23 min
same,delivery of recombinant RFP,"HeLa cells; 1 μM trimer + 1 or 2 μM recombinant RFP, 30 min, serum free",unsuccessful
